Laboratory results from patent publication US10300031B2, “Pharmaceutical compositions for treating chronic pain and pain associated with neuropathy” (priority 2007, dated 2019).
Several values for one entry are separate records, joined by “and”; a condition that tells them apart may be missing. Equal values may be shown once. Where a name gives a salt, the structure may show the parent alone. Read-outs that look alike come from different tables or passages of the source.

What was measured:
diabetic neuropathy pain [1] = experiment: Combination therapy in patients with diabetic neuropathy (Table 2, testimonies); settings: for Pain Relief (percent of reduction in pain), Diabetic Neuropathy: TLI-1026 twice daily (N = 5), single agents mg/day: dextromethorphan 70, tramadol 70, gabapentin 180; for pain relief (patient or physician testimony): diabetic neuropathy patients; for side effects / tolerability: two patients with diabetic peripheral polyneuropathy
fibromyalgia pain = experiment: Combination therapy in patients with fibromyalgia (Table 2, testimonies); assay type: in vivo, human; settings: for Pain Relief (percent of reduction in pain), Fibromyalgia: TLI-1026 twice daily (N = 5), single agents mg/day: dextromethorphan 70, tramadol 70, gabapentin 180
[2] = tested on: transient K+ channels in hippocampal neurons; settings: cited from earlier work
Diabetic Neuropathy = settings: Dose mg/day: dextromethorphan hydrobromide 400-480, tramadol hydrochloride 400, gabapentin 3600; cited from earlier work
Fibromyalgia = settings: Dose mg/day: dextromethorphan hydrobromide 400-480, tramadol hydrochloride 400, gabapentin 3600; cited from earlier work
[3] = 0.2M sodium chloride; cited from earlier work
[4] = i.v. administration, rats; cited from earlier work
[5] = tested on: NF-κ-B activation in human myeloid ML-1a cells; settings: pretreatment of ML-1a cells; dose- and time-dependent; cited from earlier work
[6] = oral dosing of rats, after 3 hours; cited from earlier work
[7] = 90 g cream (0.025% capsaicin) per week, 100% absorbed, 50 kg person; cited from earlier work
diabetic neuropathy pain [8] = settings: human, in vivo
μ-opiate receptors = μ-opiate receptors (Homo sapiens, UniProt P35372); settings: cited from earlier work
[9] = cited from earlier work; for accumulation during multiple dose treatment: multiple dose treatment with tramadol
[10] = tested on: pain in diabetic neuropathy and fibromyalgia patients; experiment: Pooled statements on pain reduction in diabetic neuropathy and fibromyalgia patients; assay type: in vivo, human
[11] = tested on: painful diabetic neuropathy; settings: oral amitriptyline; cited from earlier work
hH1 Na+ channels = hH1 Na+ channels (Homo sapiens, UniProt Q14524); settings: cited from earlier work; for IC50: 0.1-100 μM
postherpetic neuralgia = settings: oral amitriptyline; cited from earlier work
cardiac Na+ channels = cardiac Na+ channels (Homo sapiens, UniProt Q14524); settings: cited from earlier work
[12] = tested on: Na+ currents in adrenal chromaffin cells; settings: read-out: IC50, peak Na+ currents; cited from earlier work
[13] = tested on: patients with fibromyalgia; settings: fibromyalgia trials, cited from earlier work
pain score in patients = settings: cited from earlier work
[14] = tested on: patients with diabetic peripheral neuropathy; settings: diabetic peripheral neuropathy trials; cited from earlier work
CYP2E1 = CYP2E1 (Homo sapiens, UniProt P05181); settings: gabapentin concentrations up to 171 μg/mL; cited from earlier work
[15] = cited from earlier work
CYP3A4 = CYP3A4 (Homo sapiens, UniProt P08684); settings: gabapentin concentrations up to 171 μg/mL; cited from earlier work
CYP1A2 = CYP1A2 (Homo sapiens, UniProt P05177); settings: gabapentin concentrations up to 171 μg/mL; cited from earlier work
CYP2C9 = CYP2C9 (Homo sapiens, UniProt P11712); settings: gabapentin concentrations up to 171 μg/mL; cited from earlier work
CYP2C19 = CYP2C19 (Homo sapiens, UniProt P33261); settings: gabapentin concentrations up to 171 μg/mL; cited from earlier work
CYP2D6 = CYP2D6 (Homo sapiens, UniProt P10635); settings: gabapentin concentrations up to 171 μg/mL; cited from earlier work
[16] = tested on: pain (arthritis, back, cancer neuropathy, tooth, lumbar, cervical spondyolosis, knee); settings: in vivo

Sequence of μ-opiate receptors (P35372 whole entry): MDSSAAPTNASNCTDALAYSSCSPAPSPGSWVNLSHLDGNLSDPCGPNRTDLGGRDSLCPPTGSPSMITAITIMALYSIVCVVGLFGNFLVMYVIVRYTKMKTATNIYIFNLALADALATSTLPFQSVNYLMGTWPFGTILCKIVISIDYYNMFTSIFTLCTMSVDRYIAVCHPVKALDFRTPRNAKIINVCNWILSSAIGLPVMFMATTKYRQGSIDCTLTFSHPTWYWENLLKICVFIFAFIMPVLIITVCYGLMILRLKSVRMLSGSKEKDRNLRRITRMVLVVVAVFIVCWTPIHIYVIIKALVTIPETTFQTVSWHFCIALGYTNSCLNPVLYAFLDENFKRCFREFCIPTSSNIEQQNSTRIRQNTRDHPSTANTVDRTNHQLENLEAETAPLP
Sequence of hH1 Na+ channels (Q14524 whole entry): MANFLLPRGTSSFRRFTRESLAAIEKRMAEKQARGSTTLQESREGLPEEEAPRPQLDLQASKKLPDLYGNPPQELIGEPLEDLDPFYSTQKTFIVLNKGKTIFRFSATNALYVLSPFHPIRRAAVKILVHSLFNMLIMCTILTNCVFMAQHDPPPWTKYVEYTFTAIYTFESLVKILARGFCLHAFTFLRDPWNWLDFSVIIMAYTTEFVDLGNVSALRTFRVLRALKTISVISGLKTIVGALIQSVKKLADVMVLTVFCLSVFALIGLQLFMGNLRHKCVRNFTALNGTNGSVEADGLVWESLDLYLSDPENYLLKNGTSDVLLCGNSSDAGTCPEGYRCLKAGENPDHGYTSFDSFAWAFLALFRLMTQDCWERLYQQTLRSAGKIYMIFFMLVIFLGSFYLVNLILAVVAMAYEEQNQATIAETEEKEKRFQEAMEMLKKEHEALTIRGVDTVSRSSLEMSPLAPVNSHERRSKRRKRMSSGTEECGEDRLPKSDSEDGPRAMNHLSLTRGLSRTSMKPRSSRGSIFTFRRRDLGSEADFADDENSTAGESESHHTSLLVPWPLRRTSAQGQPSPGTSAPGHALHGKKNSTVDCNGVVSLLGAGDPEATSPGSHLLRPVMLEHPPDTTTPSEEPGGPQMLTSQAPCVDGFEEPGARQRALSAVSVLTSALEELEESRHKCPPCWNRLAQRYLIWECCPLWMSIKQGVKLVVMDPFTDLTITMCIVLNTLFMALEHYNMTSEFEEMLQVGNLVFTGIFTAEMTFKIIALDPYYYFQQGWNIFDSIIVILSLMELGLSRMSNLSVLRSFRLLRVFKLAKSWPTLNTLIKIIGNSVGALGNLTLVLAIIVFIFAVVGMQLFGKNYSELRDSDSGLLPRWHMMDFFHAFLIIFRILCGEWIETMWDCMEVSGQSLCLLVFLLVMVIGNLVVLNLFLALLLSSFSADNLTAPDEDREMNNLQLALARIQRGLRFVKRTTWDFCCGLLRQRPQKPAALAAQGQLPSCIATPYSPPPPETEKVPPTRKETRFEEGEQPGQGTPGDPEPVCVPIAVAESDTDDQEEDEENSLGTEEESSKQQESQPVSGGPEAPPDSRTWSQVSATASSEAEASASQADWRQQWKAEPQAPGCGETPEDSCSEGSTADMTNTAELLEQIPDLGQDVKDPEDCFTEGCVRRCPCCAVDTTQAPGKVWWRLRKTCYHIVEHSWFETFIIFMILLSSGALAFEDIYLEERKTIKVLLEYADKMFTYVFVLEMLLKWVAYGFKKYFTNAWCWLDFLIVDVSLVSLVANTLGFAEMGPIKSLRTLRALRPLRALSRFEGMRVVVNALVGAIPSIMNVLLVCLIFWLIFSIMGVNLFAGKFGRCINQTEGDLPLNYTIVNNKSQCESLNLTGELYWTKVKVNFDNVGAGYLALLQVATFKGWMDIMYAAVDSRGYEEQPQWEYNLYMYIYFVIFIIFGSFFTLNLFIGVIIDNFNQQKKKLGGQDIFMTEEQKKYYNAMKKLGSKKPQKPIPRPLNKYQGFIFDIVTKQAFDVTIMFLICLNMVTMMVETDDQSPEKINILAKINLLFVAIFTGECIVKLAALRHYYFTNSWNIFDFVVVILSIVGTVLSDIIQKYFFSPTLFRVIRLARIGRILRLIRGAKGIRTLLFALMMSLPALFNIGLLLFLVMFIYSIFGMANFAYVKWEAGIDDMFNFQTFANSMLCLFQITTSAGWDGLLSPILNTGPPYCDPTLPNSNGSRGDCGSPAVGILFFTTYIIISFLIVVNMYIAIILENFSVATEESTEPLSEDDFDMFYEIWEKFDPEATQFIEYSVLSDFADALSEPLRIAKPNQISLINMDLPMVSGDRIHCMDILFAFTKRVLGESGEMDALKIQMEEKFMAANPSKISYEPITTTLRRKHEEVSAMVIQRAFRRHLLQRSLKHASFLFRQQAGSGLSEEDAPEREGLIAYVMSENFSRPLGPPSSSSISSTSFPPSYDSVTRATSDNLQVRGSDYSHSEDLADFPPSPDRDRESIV
Sequence of cardiac Na+ channels (Q14524 whole entry): as above
Sequence of CYP2C19 (P33261 whole entry): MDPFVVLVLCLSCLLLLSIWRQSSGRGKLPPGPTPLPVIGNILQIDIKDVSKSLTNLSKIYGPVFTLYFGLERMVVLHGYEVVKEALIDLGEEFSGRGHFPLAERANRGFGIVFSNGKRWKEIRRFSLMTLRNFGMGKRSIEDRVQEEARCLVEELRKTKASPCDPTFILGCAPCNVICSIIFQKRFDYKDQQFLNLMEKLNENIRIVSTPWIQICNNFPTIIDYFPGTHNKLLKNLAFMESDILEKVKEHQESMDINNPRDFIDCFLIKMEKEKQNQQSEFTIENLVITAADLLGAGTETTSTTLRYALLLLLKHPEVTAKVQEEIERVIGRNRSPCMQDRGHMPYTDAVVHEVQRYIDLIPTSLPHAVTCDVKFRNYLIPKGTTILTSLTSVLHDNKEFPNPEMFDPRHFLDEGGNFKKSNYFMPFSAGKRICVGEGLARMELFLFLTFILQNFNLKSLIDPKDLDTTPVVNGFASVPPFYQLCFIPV

COc1ccc2c(c1)[C@]13CCCC[C@@H]1[C@H](C2)N(C)CC3
Pain Relief (percent of reduction in pain), Diabetic Neuropathy (diabetic neuropathy pain [1]): <10% | Pain Relief (percent of reduction in pain), Fibromyalgia (fibromyalgia pain): <10%

CN(C)CCCN1c2ccccc2CCc2ccccc21 [imipramine]
IC50 [2]: ~6 µM

COc1ccc2c(c1)[C@]13CCCC[C@@H]1[C@H](C2)N(C)CC3 [Dextromethorphan Hydrobromide]
Pain Relief (percent of reduction in pain), Diabetic Neuropathy (Diabetic Neuropathy): <50 (Sang 2002) percent and <50% | Pain Relief (percent of reduction in pain), Fibromyalgia (Fibromyalgia): <40 (Staud 2005) percent

COc1ccc(C(CN(C)C)C2(O)CCCCC2)cc1 (racemic) [Venlafaxine hydrochloride, (R/S)-1-[2-(dimethylamino)-1-(4-methoxyphenyl)ethyl]cyclohexanol]
octanol:water partition coefficient [3]: 0.43

COc1cc(CNC(=O)CCCCC=CC(C)C)ccc1O [capsaicin, 8-methyl-N-vanillyl-6-nonenamide]
time to distribution to brain, spinal cord, liver and blood [4]: ≤ 20 min | effect on TNF-mediated activation of NF-κ-B [5]: blocked TNF-mediated activation of NF-κ-B | absorption in the jejunum [6]: 85% | estimated daily exposure [7]: 0.064 mg/kg

CN(C)CCC=C1c2ccccc2CCc2ccccc21 [Elavil]
side effects / tolerability (diabetic neuropathy pain [8]): substantial, negative side effects | pain relief (patient or physician testimony) (diabetic neuropathy pain [1]): no substantial pain relief

CC(C)C[C@H](CN)CC(=O)O [Lyrica]
pain relief (patient or physician testimony) (diabetic neuropathy pain [1]): only minimal resolution of symptoms | side effects / tolerability (diabetic neuropathy pain [1]): substantial, negative side effects

COc1cccc(C2(O)CCCCC2CN(C)C)c1 (single isomer, unassigned) [Tramadol Hydrochloride, (1R,2R or 1S,2S)-(dimethylaminomethyl)-1-(3-methoxyphenyl)-cyclohexanol]
Pain Relief (percent of reduction in pain), Diabetic Neuropathy (Diabetic Neuropathy): <35 (Sindrup 1999) percent and <35% | Pain Relief (percent of reduction in pain), Fibromyalgia (Fibromyalgia): <30 (Biasi 1998; percent | affinity for μ-opiate receptors relative to dextromethorphan (μ-opiate receptors): equivalent | affinity for μ-opiate receptors, fold less than codeine (μ-opiate receptors): 10 fold | affinity for μ-opiate receptors, fold less than d-propoxyphene (μ-opiate receptors): 100 fold | affinity for μ-opiate receptors, fold less than morphine (μ-opiate receptors): 6,000 fold | Pain Relief (percent of reduction in pain), Diabetic Neuropathy (diabetic neuropathy pain [1]): <10% | time to peak serum concentrations ([9]; after oral administration): ≤ 2 h | accumulation during multiple dose treatment [9]: approximately 2 fold | duration of the analgesic effect ([9]; single oral dose of tramadol 100 mg): about 6 hours | reduction in pain ([10]; 400 mg of tramadol per day, patients with diabetic neuropathy and fibromyalgia): 30-40% | Pain Relief (percent of reduction in pain), Fibromyalgia (fibromyalgia pain): <10% | pain relief (patient or physician testimony) (fibromyalgia pain; fibromyalgia patients): moderate relief

CN(C)CCC=C1c2ccccc2CCc2ccccc21 [amitriptyline]
share of patients with a good or moderate response [11]: three-quarters | use-dependent block during repetitive pulses (hH1 Na+ channels; 1 μM, 5 Hz): ~55% | IC50 (hH1 Na+ channels; inactivated channels, n=7, read-out: IC50, tonic block of inactivated hH1 channels): 0.58 ± 0.03 µM | IC50 (hH1 Na+ channels; resting channels, n=9, read-out: IC50, tonic block of resting hH1 channels): 24.8 ± 2 µM | share of patients with a good or moderate response (postherpetic neuralgia): about two-thirds | use-dependent block of Na+ current (cardiac Na+ channels; 0.4 μM, repetitive pulses at a frequency of 5 Hz, cardiac myocytes): profound use-dependent block | time constant of recovery from the use-dependent block (cardiac Na+ channels; cardiac Na+ channels): 13.6 s | IC50 [12]: 20.2 µM

CC(C)C[C@H](CN)CC(=O)O [pregabalin]
patients who discontinued prematurely due to adverse reactions ([13]; 150-600 mg/day): 19% | discontinuation due to dizziness [13]: 6% | discontinuation due to somnolence [13]: 3% | withdrawal due to each of fatigue, headache, balance disorder, weight increased [13]: approximately 1% | endpoint mean pain score and proportion with at least a 50% reduction in pain score (pain score in patients; 8-week study, 50 and 100 mg three times a day): statistically significantly improved | endpoint mean pain score and proportion with at least a 50% reduction in pain score (pain score in patients; 8-week study, 100 or 200 mg three times a day, doses assigned by creatinine clearance): statistically significantly improved | endpoint mean pain score and proportion with at least a 50% reduction in pain score (pain score in patients; 13-week study, 75, 150, 300 mg twice daily, creatinine clearance greater than 60 mL/min, all doses): statistically significantly improved | endpoint mean pain score and proportion with at least a 50% reduction in pain score (pain score in patients; 100 and 200 mg three times a day): statistically significantly improved | discontinuation due to dizziness [14]: 3% | discontinuation due to somnolence [14]: 2% | patients who discontinued prematurely due to adverse reactions [14]: 9% | withdrawal due to each of asthenia, confusion, peripheral edema [14]: approximately 1%

NCC1(CC(=O)O)CCCCC1 [Gabapentin]
Pain Relief (percent of reduction in pain), Diabetic Neuropathy (Diabetic Neuropathy): <50 (Marchettini percent and <50% | Pain Relief (percent of reduction in pain), Fibromyalgia (Fibromyalgia): <50 (Lesley 2007) percent | inhibition of CYP2E1 (CYP2E1): No inhibition | Pain Relief (percent of reduction in pain), Diabetic Neuropathy (diabetic neuropathy pain [1]): <10% | pain relief (patient or physician testimony) (diabetic neuropathy pain [1]; listed as Neurontin): no substantial pain relief | pain relief (patient or physician testimony) (diabetic neuropathy pain [1]; listed as Nurontin): only curb the pain | side effects / tolerability (diabetic neuropathy pain [1]): substantial, negative side effects | bioavailability ([15]; 900 mg/day given in 3 divided doses): approximately 60% | bioavailability ([15]; 1200 mg/day given in 3 divided doses): ~47% | bioavailability ([15]; 2400 mg/day given in 3 divided doses): ~34% | bioavailability ([15]; 3600 mg/day given in 3 divided doses): ~33% | bioavailability ([15]; 4800 mg/day given in 3 divided doses): ~27% | increase in AUC and Cmax with food ([15]; food effect): 14% | bound to plasma protein ([15]; in vivo): Less than 3% | steady-state predose (Cmin) concentration in cerebrospinal fluid, % of corresponding plasma concentrations ([15]; patients with epilepsy): approximately 20% | inhibition of CYP3A4 (CYP3A4): No inhibition | inhibition of CYP1A2 (CYP1A2): No inhibition | relief from pain with prior therapy (physician testimony) ([10]; up to 1600 mg per day, patients with diabetic neuropathy or fibromyalgia): partial and marginal relief | Pain Relief (percent of reduction in pain), Fibromyalgia (fibromyalgia pain): <10% | inhibition of CYP2C9 (CYP2C9): No inhibition | inhibition of CYP2C19 (CYP2C19): No inhibition | inhibition of CYP2D6 (CYP2D6): No inhibition

CN(C)C[C@H]1CCCC[C@]1(O)c1cccc(O)c1 [M1 derivative]
half-life ([9]; after a single oral dose of 100 mg): 9 h | accumulation during multiple dose treatment [9]: approximately 2 fold

CCCC(C)(COC(N)=O)COC(=O)NC(C)C (stereo not shown) [Soma, Carisoprodol]
pain relief (testimony) [16]: only seemed to mask the pain | side effects [16]: quite drowsy
